Experimental findings from the supplement of paper PMC10307832 are described below.

What all share (assay): relative viability (nuclei count vs DMSO), 5 days (fraction); higher = more cells survive
Compound in one experiment: C#Cc1cccc(Nc2ncnc3cc(OCCOC)c(OCCOC)cc23)c1 [Erlotinib]
A digest of the protocol: (§1)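 In 1536-well plates, lung cancer cell lines rested overnight at 37 °C before five library-drug doses (not always all listed), √10 apart, were pinned onto vehicle-anchored plates. Nuclei were counted with MetaXpress from 4× Hoechst images taken after 5 days without medium change. Viability compares treated-well with vehicle-well nuclei as a median over plates, and plates needed control CV below 25% plus at least one doubling to pass.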

Compound in a further experiment: N=C(N)NC(=N)NCCc1ccccc1 [Phenformin] (anchor plate)
As to conditions: 250 µM. A digest of the protocol:
as §1

Compound in another experiment: O=C(Nc1c[nH]nc1-c1nc2ccc(CN3CCOCC3)cc2[nH]1)NC1CC1 [AT9283]
A digest of the protocol:
as §1

Compound in the experiment “Erlotinib + Linsitinib”: C#Cc1cccc(Nc2ncnc3cc(OCCOC)c(OCCOC)cc23)c1 [Erlotinib] + C[C@]1(O)C[C@@H](c2nc(-c3ccc4ccc(-c5ccccc5)nc4c3)c3c(N)nccn32)C1 [Linsitinib] (partner 1 µM)
A digest of the protocol: (§2)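 Lung cancer cell lines, seeded in 1536-well plates, were treated the following day by pin tool with a single drug or with five library-drug doses (not always all listed) in √10 steps on top of a fixed anchor-drug dose. Cells were fixed and nuclei stained in one step after 5 days, and nuclei were counted. Relative viability is the nuclei count for treated wells divided by that for vehicle wells, reported as medians of duplicate plates.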

Compound in the experiment “AT9283 + Phenformin”: O=C(Nc1c[nH]nc1-c1nc2ccc(CN3CCOCC3)cc2[nH]1)NC1CC1 [AT9283] + N=C(N)NC(=N)NCCc1ccccc1 [Phenformin] (partner 250 µM)
The method, boiled down:
as §2

On to PC-3 [JPC-3], for which the relative viability came to 0.945 with Erlotinib (0.02 µM); 0.636 with Erlotinib (0.2 µM); 0.459 in the experiment with Erlotinib (0.6325 µM); 0.407 in the experiment with Erlotinib (2 µM); 0.469 in the experiment with Phenformin; 1.03 with AT9283 (0.003 µM). In addition, the relative viability with AT9283 (0.03 µM) came out at 0.961; with AT9283 (0.09487 µM), 0.868; with AT9283 (0.3 µM), 0.498; with Erlotinib + Linsitinib (first compound 0.02 µM), 0.829; in the experiment with Erlotinib + Linsitinib (first compound 0.2 µM), 0.461; with Erlotinib + Linsitinib (first compound 0.6325 µM) it was 0.423. For the same cell line, the relative viability with Erlotinib + Linsitinib (first compound 2 µM) was determined as 0.385; with AT9283 + Phenformin (first compound 0.003 µM), 0.478; with AT9283 + Phenformin (first compound 0.03 µM), 0.476; with AT9283 + Phenformin (first compound 0.09487 µM), 0.423; in the experiment with AT9283 + Phenformin (first compound 0.3 µM), 0.377.

Regarding PC-14, the relative viability amounted to 0.574 in the experiment with Erlotinib (0.02 µM); 0.31 with Erlotinib (0.2 µM); 0.289 with Erlotinib (0.6325 µM); 0.228 with Erlotinib (2 µM); 0.608 with Phenformin; 1.05 with AT9283 (0.003 µM). Besides, the relative viability in the experiment with AT9283 (0.03 µM) was found to be 0.823; with AT9283 (0.09487 µM) it was 0.377; in the experiment with AT9283 (0.3 µM), 0.133; in the experiment with Erlotinib + Linsitinib (first compound 0.02 µM), 0.426; with Erlotinib + Linsitinib (first compound 0.2 µM), 0.289; in the experiment with Erlotinib + Linsitinib (first compound 0.6325 µM) it was 0.269. Further, the relative viability amounted to 0.219 in the experiment with Erlotinib + Linsitinib (first compound 2 µM); 0.51 in the experiment with AT9283 + Phenformin (first compound 0.003 µM); 0.468 with AT9283 + Phenformin (first compound 0.03 µM); 0.197 in the experiment with AT9283 + Phenformin (first compound 0.09487 µM); 0.109 with AT9283 + Phenformin (first compound 0.3 µM).

For RERF-LC-KJ, the relative viability with Erlotinib (0.02 µM) was 0.947; with Erlotinib (0.2 µM), 0.879; with Erlotinib (0.6325 µM) it was 0.871; with Erlotinib (2 µM) it was 0.716; with Phenformin, 0.42; in the experiment with AT9283 (0.003 µM), 0.986. Besides, the relative viability with AT9283 (0.03 µM) amounted to 0.667; with AT9283 (0.09487 µM) it was 0.431; with AT9283 (0.3 µM), 0.27; with Erlotinib + Linsitinib (first compound 0.02 µM), 0.914; in the experiment with Erlotinib + Linsitinib (first compound 0.2 µM), 0.837; in the experiment with Erlotinib + Linsitinib (first compound 0.6325 µM), 0.736. Moreover, the relative viability in the experiment with Erlotinib + Linsitinib (first compound 2 µM) was found to be 0.565; with AT9283 + Phenformin (first compound 0.003 µM), 0.408; with AT9283 + Phenformin (first compound 0.03 µM), 0.364; with AT9283 + Phenformin (first compound 0.09487 µM) it was 0.25; with AT9283 + Phenformin (first compound 0.3 µM) it was 0.242.

For the cell line SK-LU-1, the relative viability with Erlotinib (0.02 µM) is 1.11; with Erlotinib (0.2 µM), 1.11; with Erlotinib (0.6325 µM), 1.13; with Erlotinib (2 µM), 0.907; in the experiment with Phenformin it was 0.523; in the experiment with AT9283 (0.003 µM), 1.06. In addition, the relative viability stood at 0.691 with AT9283 (0.03 µM); 0.312 in the experiment with AT9283 (0.09487 µM); 0.335 with AT9283 (0.3 µM); 1.46 with Erlotinib + Linsitinib (first compound 0.02 µM); 1.11 in the experiment with Erlotinib + Linsitinib (first compound 0.2 µM); 1.18 with Erlotinib + Linsitinib (first compound 0.6325 µM). Further, the relative viability worked out at 0.75 with Erlotinib + Linsitinib (first compound 2 µM); 0.582 with AT9283 + Phenformin (first compound 0.003 µM); 0.431 with AT9283 + Phenformin (first compound 0.03 µM); 0.179 with AT9283 + Phenformin (first compound 0.09487 µM); 0.179 with AT9283 + Phenformin (first compound 0.3 µM).

In the case of SK-MES-1, the relative viability worked out at 1.02 with Erlotinib (0.02 µM); 0.809 in the experiment with Erlotinib (0.2 µM); 0.498 in the experiment with Erlotinib (0.6325 µM); 0.41 with Erlotinib (2 µM); 0.665 with Phenformin; 1.05 in the experiment with AT9283 (0.003 µM). Further, the relative viability worked out at 0.975 with AT9283 (0.03 µM); 0.581 with AT9283 (0.09487 µM); 0.232 with AT9283 (0.3 µM); 1.09 in the experiment with Erlotinib + Linsitinib (first compound 0.02 µM); 0.767 in the experiment with Erlotinib + Linsitinib (first compound 0.2 µM); 0.537 in the experiment with Erlotinib + Linsitinib (first compound 0.6325 µM). Moreover, the relative viability is 0.434 with Erlotinib + Linsitinib (first compound 2 µM); 0.748 in the experiment with AT9283 + Phenformin (first compound 0.003 µM); 0.595 with AT9283 + Phenformin (first compound 0.03 µM); 0.318 with AT9283 + Phenformin (first compound 0.09487 µM); 0.243 with AT9283 + Phenformin (first compound 0.3 µM).

In the case of SW 1573, the relative viability with Erlotinib (0.02 µM) is 1.02; with Erlotinib (0.2 µM) it was 0.955; with Erlotinib (0.6325 µM), 1.02; with Erlotinib (2 µM), 0.925; with Phenformin, 0.385; with AT9283 (0.003 µM), 0.913. In addition, the relative viability in the experiment with AT9283 (0.03 µM) is 0.326; with AT9283 (0.09487 µM) it was 0.222; with AT9283 (0.3 µM), 0.177; in the experiment with Erlotinib + Linsitinib (first compound 0.02 µM), 0.81; with Erlotinib + Linsitinib (first compound 0.2 µM), 0.724; in the experiment with Erlotinib + Linsitinib (first compound 0.6325 µM), 0.797. Further, the relative viability in the experiment with Erlotinib + Linsitinib (first compound 2 µM) is 0.853; with AT9283 + Phenformin (first compound 0.003 µM) it was 0.426; with AT9283 + Phenformin (first compound 0.03 µM), 0.163; in the experiment with AT9283 + Phenformin (first compound 0.09487 µM) it was 0.156; in the experiment with AT9283 + Phenformin (first compound 0.3 µM) it was 0.121.

As for UMC-11, the relative viability with Erlotinib (0.02 µM) came out at 0.956; in the experiment with Erlotinib (0.2 µM) it was 0.944; with Erlotinib (0.6325 µM) it was 1.18; in the experiment with Erlotinib (2 µM), 0.964; with Phenformin it was 0.318; with AT9283 (0.003 µM) it was 0.903. Also, the relative viability in the experiment with AT9283 (0.03 µM) was 0.171; with AT9283 (0.09487 µM), 0.146; in the experiment with AT9283 (0.3 µM), 0.212; with Erlotinib + Linsitinib (first compound 0.02 µM), 1.04; in the experiment with Erlotinib + Linsitinib (first compound 0.2 µM), 1.05; with Erlotinib + Linsitinib (first compound 0.6325 µM), 1.16. Besides, the relative viability came out at 0.945 with Erlotinib + Linsitinib (first compound 2 µM); 0.308 with AT9283 + Phenformin (first compound 0.003 µM); 0.184 with AT9283 + Phenformin (first compound 0.03 µM); 0.178 with AT9283 + Phenformin (first compound 0.09487 µM); 0.171 with AT9283 + Phenformin (first compound 0.3 µM).
